The values that follow come from ChEMBL document CHEMBL1153227, “2,3,5-Trisubstituted pyridines as selective AKT inhibitors. Part II: Improved drug-like properties and kinase selectivity from azaindazoles” (Bioorg Med Chem Lett, 2010).

Converted amounts (≈) assume the structure as drawn. The source made the active and inactive calls. The rule behind the calls is not given here.

Data set [1] concerns the target Rho-associated protein kinase 1 (Homo sapiens, UniProt Q13464). The data set is described as follows: Inhibition of ROCK1.
A short description of data set [2]: Inhibition of PKA.
For data set [3], the target named is Cytochrome P450 2C19 (Homo sapiens, UniProt P33261). The data set is described as follows: Inhibition of CYP2C19. The class given is ADME.
Chain of Cytochrome P450 2C19 (P33261 whole entry): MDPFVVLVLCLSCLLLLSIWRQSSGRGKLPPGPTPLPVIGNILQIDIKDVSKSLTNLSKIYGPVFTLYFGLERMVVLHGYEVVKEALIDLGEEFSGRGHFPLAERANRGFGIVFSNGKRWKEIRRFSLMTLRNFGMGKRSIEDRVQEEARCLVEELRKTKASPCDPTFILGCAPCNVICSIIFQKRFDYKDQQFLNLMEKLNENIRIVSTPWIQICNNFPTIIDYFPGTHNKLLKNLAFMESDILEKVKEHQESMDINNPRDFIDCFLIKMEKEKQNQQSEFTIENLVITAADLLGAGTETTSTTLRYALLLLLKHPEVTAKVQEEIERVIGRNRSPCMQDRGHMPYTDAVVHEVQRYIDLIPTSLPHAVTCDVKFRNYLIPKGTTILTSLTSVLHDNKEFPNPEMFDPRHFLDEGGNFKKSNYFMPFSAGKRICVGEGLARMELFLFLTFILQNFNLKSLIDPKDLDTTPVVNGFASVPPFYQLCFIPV
For data set [4], the target named is Serine/threonine-protein kinase PAK 1 (Homo sapiens, UniProt Q13153). The data set is described as follows: Inhibition of PAK1.
Chain of Serine/threonine-protein kinase PAK 1 (Q13153 whole entry): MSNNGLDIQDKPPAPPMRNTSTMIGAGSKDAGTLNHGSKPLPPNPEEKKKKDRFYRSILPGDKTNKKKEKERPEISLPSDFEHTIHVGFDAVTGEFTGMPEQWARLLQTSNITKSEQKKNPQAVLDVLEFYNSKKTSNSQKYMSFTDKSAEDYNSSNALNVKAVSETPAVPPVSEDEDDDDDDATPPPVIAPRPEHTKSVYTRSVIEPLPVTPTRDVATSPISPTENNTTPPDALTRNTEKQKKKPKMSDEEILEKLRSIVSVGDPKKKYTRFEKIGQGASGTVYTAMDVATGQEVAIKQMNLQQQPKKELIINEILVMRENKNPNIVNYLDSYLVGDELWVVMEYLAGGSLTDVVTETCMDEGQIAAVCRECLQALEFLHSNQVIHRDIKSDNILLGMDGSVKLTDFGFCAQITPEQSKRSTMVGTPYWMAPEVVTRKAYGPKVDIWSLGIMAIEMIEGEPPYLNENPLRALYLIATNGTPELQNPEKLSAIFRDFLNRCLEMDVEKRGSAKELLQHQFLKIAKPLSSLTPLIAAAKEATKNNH
Data set [5] has as its target RAC-alpha serine/threonine-protein kinase (Homo sapiens, UniProt P31749). The data set can be described thus: Inhibition of AKT1.
The target in data set [6] is Cytochrome P450 2D6 (Homo sapiens, UniProt P10635). The data set can be described thus: Inhibition of CYP2D6. In kind it is ADME.
Chain of Cytochrome P450 2D6 (P10635 whole entry): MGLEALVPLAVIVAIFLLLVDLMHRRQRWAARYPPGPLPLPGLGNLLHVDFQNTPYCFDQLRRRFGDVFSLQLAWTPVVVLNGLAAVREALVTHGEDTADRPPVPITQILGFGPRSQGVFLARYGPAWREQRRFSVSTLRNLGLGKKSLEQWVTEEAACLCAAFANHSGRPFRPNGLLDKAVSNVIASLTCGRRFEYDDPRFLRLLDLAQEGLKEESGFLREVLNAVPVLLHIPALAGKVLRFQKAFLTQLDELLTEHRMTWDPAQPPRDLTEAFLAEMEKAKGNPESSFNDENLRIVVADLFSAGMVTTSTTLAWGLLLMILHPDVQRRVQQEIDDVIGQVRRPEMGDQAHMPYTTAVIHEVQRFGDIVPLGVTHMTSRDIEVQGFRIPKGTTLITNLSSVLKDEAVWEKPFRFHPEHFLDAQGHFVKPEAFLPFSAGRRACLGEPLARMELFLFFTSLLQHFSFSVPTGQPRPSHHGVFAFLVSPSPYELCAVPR
Data set [7] addresses RAC-gamma serine/threonine-protein kinase (Homo sapiens, UniProt Q9Y243). The data set can be described thus: Inhibition of AKT3.
Data set [8] can be described thus: Protein binding in SCID mouse plasma. In kind it is ADME, cell-free. Particulars: read-out: PPB (converted).
For data set [9], the system named is LNCaP. The data set is described as follows: Cytotoxicity against human LNCAP cells. In kind it is functional, cell-based.
Data set [10] addresses RAC-beta serine/threonine-protein kinase (Homo sapiens, UniProt P31751). The data set can be described thus: Inhibition of AKT2.
Data set [11] has as its target T1, Cytochrome P450 1A2 (Homo sapiens, UniProt P05177).
T1 sequence (P05177 whole entry): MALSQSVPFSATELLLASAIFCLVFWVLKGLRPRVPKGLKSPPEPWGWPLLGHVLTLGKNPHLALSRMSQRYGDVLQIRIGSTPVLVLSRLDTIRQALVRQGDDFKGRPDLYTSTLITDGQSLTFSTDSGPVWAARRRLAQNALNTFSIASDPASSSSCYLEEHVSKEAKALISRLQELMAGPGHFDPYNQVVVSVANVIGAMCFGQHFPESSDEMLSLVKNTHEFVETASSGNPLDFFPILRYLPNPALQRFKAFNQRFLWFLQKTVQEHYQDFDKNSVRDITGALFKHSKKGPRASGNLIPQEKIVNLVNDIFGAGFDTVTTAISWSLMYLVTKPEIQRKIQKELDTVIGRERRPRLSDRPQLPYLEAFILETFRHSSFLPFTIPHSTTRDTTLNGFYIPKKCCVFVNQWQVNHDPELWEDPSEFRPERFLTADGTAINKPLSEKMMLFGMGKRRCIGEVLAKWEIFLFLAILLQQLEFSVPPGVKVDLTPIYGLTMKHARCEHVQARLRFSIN
The data set is described as follows: Inhibition of CYP1A2. In kind it is ADME.

The target of data set [12] is Cytochrome P450 3A4 (Homo sapiens, UniProt P08684). The data set is described as follows: Inhibition of CYP3A4. In kind it is ADME.
Chain of Cytochrome P450 3A4 (P08684 whole entry): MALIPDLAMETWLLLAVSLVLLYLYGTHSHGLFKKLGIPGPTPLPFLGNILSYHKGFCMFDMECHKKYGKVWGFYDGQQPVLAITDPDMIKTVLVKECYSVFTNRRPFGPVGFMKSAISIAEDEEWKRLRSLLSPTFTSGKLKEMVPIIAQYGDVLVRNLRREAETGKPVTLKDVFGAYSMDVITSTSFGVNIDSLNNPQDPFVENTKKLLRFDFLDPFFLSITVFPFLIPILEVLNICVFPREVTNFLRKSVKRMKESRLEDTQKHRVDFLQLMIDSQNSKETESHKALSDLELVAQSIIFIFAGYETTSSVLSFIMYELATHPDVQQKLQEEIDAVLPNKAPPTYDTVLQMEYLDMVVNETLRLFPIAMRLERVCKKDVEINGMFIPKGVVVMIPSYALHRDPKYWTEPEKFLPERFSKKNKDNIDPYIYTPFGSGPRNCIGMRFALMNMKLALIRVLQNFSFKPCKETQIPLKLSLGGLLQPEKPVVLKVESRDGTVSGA
Data set [13] concerns the target Ribosomal protein S6 kinase beta-1 (Homo sapiens, UniProt P23443). The data set is described as follows: Inhibition of P70S6K.
Data set [14] deals with BT-474. The data set can be described thus: Cytotoxicity against human BT474 cells. In kind it is functional, cell-based.
Data set [15] in a line: Solubility of the compound. The class given is physicochemical.
A short description of data set [16]: Inhibition of RSK.
Data set [17] concerns HFF. The data set can be described thus: Cytotoxicity against HFF cells. The class given is cell-based. Particulars: Homo sapiens.
In data set [18] the test system is Mus musculus. The data set is described as follows: Inhibition of GSK3-beta phosphorylation in human BT474 cell xenografted SCID mouse at 50 mg/kg, ip. In kind it is functional. The following applies: BT-474, ip, route intraperitoneal.
Data set [19] relates to Mus musculus. The data set is described as follows: Inhibition of GSK3-beta phosphorylation in human BT474 cell xenografted SCID mouse at 25 mg/kg, ip. The following applies: BT-474. In kind it is functional, organism-based. On the set-up: dose 25 mg/kg.
A short description of data set [20]: Drug level in tumor of human BT474 cells xenografted in SCID mouse at 50 mg/kg, ip. The following applies: in vivo. On the set-up: dose 50 mg/kg, route intraperitoneal. The class given is ADME, organism-based, Neoplasm, BT-474.
Data set [21] deals with Mus musculus. The data set can be described thus: Inhibition of GSK3-beta phosphorylation in human BT474 cell xenografted SCID mouse at 12.5 mg/kg, ip. Particulars: BT-474. In kind it is functional, organism-based. Set-up: dose 12.5 mg/kg.

Chain of RAC-gamma serine/threonine-protein kinase (Q9Y243 whole entry): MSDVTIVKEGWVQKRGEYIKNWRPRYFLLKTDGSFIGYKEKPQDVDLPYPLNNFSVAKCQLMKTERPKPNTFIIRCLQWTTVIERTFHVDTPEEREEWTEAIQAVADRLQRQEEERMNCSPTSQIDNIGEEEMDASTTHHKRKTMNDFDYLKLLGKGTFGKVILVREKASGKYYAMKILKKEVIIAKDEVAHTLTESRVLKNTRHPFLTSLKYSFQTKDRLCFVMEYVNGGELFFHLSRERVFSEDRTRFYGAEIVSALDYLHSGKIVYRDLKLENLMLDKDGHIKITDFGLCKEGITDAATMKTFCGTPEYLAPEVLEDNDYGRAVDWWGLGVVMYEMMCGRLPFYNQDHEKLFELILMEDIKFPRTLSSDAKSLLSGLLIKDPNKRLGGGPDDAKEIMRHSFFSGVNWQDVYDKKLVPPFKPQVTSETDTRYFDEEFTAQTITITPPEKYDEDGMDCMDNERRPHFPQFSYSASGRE
Chain of RAC-alpha serine/threonine-protein kinase (P31749 whole entry): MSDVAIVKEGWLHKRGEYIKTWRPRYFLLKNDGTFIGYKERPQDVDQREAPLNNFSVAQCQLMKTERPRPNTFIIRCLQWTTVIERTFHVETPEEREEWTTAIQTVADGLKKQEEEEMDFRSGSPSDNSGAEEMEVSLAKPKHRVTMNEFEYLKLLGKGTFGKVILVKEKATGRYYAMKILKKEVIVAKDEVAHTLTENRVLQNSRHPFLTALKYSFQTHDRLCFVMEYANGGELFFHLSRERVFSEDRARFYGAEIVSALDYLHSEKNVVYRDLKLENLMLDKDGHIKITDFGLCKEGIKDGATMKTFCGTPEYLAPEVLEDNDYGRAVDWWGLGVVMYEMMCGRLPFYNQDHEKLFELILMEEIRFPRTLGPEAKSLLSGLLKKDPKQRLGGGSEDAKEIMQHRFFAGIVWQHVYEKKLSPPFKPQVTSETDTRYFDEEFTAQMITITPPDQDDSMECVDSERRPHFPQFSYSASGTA
Chain of RAC-beta serine/threonine-protein kinase (P31751 whole entry): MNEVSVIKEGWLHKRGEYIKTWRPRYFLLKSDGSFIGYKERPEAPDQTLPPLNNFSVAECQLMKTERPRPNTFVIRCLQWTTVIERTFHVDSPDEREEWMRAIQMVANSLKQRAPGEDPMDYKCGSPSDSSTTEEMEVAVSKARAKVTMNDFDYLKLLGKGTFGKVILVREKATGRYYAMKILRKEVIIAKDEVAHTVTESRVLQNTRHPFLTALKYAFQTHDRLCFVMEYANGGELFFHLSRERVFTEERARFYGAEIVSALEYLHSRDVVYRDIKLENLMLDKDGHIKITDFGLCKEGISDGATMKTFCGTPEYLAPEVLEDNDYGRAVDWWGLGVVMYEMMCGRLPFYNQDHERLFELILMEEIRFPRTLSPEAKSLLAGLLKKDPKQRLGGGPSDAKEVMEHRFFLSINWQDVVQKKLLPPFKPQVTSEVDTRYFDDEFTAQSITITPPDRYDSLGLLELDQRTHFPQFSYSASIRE
Chain of Rho-associated protein kinase 1 (Q13464 whole entry): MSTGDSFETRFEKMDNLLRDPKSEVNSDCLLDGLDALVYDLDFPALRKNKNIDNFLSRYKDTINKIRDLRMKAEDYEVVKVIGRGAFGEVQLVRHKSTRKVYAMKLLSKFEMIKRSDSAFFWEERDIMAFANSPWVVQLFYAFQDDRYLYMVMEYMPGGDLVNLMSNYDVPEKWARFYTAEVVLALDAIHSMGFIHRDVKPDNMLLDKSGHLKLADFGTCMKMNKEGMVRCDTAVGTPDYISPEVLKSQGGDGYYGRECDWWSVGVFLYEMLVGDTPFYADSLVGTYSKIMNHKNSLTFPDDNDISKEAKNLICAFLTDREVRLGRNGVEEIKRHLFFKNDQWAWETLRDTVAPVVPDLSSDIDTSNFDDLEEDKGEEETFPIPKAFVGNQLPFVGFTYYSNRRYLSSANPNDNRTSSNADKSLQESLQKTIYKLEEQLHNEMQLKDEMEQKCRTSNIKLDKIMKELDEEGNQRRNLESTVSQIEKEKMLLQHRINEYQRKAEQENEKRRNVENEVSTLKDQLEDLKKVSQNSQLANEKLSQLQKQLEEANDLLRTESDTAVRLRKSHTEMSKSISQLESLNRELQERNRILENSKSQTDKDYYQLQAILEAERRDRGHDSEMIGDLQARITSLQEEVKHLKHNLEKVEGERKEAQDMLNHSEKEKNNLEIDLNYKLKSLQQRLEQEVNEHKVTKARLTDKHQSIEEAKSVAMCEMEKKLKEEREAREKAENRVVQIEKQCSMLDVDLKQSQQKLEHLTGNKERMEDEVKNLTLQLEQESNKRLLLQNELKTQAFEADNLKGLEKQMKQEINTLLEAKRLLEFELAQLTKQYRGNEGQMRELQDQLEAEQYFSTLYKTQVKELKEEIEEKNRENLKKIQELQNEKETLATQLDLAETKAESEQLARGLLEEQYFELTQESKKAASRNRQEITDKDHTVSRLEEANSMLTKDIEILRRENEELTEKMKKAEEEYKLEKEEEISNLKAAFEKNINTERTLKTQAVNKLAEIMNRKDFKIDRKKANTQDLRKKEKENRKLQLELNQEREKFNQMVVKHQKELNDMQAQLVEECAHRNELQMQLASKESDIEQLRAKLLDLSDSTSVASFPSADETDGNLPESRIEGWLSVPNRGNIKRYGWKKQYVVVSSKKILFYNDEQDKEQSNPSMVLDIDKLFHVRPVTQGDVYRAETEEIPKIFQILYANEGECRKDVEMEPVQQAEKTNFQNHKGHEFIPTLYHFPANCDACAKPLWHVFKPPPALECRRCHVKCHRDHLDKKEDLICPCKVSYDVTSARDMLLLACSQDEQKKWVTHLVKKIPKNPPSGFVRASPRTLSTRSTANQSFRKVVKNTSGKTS

Take `Cc1[nH]nc2ccc(-c3cc(OC[C@@H](N)Cc4c[nH]c5ccccc45)cnc3-c3ccoc3)cc12`: the IC50 in data set [1] is 1580 nM; in [2], 1 nM; in [3] it was 2000 nM; in data set [4], 31 nM; in data set [5], 1 nM; in data set [6], 5000 nM. Moreover, the IC50 in data set [7] amounted to 1 nM; in data set [9] it was 190 nM; in data set [10], 12 nM; in data set [11], 50000 nM; in data set [12], 50 nM; in data set [13], 7 nM. In addition, the concentration for half-maximal inhibition (IC50) came out at 340 nM in data set [14], 25 nM in data set [16] and 5500 nM in data set [17]. The fraction unbound in data set [8] was 0.041. Moreover, the solubility in data set [15] came out at 52 µM (≈ 24.1 µg/mL).

Take `Cc1n[nH]c2ncc(-c3cc(OC[C@@H](N)Cc4c[nH]c5ccccc45)cnc3-c3ccoc3)cc12`: the IC50 was found to be 1 nM in data set [5]; 85 nM in data set [9]; 200 nM in data set [12]; 300 nM in data set [14]; 6600 nM in data set [17]. In data set [8], the fraction unbound is 0.047. Further, the solubility in data set [15] came out at 108 µM (≈ 50.2 µg/mL).

Turning to `Cc1n[nH]c2cnc(-c3cc(OC[C@@H](N)Cc4c[nH]c5ccccc45)cnc3-c3ccoc3)nc12`, the IC50 came to 1 nM in [5]; 15 nM in data set [7]; 540 nM in [9]; 31 nM in data set [10]; 1300 nM in data set [12]; 640 nM in data set [14]. Also, the midpoint of inhibition in data set [17], the IC50, lay at 30000 nM. Besides, the fraction unbound in data set [8] was 0.155. Also, the concentration in solution in data set [15] (solubility) was 205 µM (≈ 95.4 µg/mL).

As to `Cc1n[nH]c2ccc(-c3cc(OC[C@@H](N)Cc4c[nH]c5ccccc45)cnc3-c3ccoc3)nc12`, the IC50 in data set [5] is 12 nM; in [9], 830 nM; in data set [12] it was 100 nM; in data set [14], 2100 nM; in data set [17] it was 30000 nM. For the same molecule, in data set [8], the fraction unbound is 0.069. In [15], this molecule yielded a solubility of 225 µM (≈ 105 µg/mL).

Regarding `Cc1n[nH]c2ncc(-c3cc(OC[C@@H](N)Cc4c[nH]c5ccccc45)cnc3-c3ccoc3)nc12`, the IC50 amounted to 2 nM in [5]; 10 nM in data set [7]; 96 nM in data set [9]; 39 nM in data set [10]; 400 nM in data set [12]; 370 nM in data set [14]. The molecule further yielded an IC50 in [17] of 14300 nM. In data set [18], the inhibition in vivo at 50 mg/kg was found to be 80%. Moreover, the fraction unbound in data set [8] was 0.091. In addition, the result in data set [19] and in data set [21] was inactive. Also, the Drug uptake in [20] stood at 3798 ng/mL. The same molecule displayed a solubility in data set [15] of 200 µM (≈ 93.1 µg/mL).

Take `Cc1n[nH]c2cnc(-c3cc(OC[C@@H](N)Cc4c[nH]c5ccccc45)cnc3-c3ccoc3)cc12`: the IC50 in data set [5] was determined as 1 nM; in data set [7], 1 nM; in data set [9] it was 230 nM; in data set [10], 6 nM; in data set [12], 16 nM; in data set [14], 750 nM. The IC50 in data set [17] was 6500 nM. Further, in data set [8], the fraction unbound was 0.057.
